Test results from PMC10965847, “Expanding a peptide-covalent probe hybrid for PET imaging of S. aureus driven focal infections” (EJNMMI Radiopharmacy and Chemistry, 2024).
“Also recorded” adds a separate entry of the source.

Key:
S. aureus membrane = experiment: Membrane depolarization, DiOC2(3), flow cytometry; format: cell-based; conditions: 5 µM CCCP; DiOC2(3) 30 µM; result in words
Text: AMPs are reported to destroy bacterial cells by permeabilizing the membrane, followed by depolarization (Mitra et al. [2020]; Bhatt Mitra et al. [2020]). To explore if UBI-APBA utilized this strategy to adversely affect the survival of S. aureus, depolarization and permeabilization of S. aureus membrane was studied by flow cytometry. […] Furthermore, we investigated the permeabilization of the S. aureus membrane by assessing propidium iodide uptake (PI).
For the permeabilization study, peptide-treated cells were washed with saline followed by staining with DNA stain, propidium iodide (PI) at a final concentration of 45 µM (30 min at 37 °C and 120 rpm). Isopropanol treated cells were used as positive control. The % permeabilization was calculated after normalizing the values with respect to the untreated (0% permeabilization) and isopropanol treated cells (100% permeabilization).
Positive control for membrane depolarization studies was prepared by incubating bacteria under similar conditions with 5 µM CCCP.

HEK 293 cells = experiment: Cell cytotoxicity (MTT) assay; conditions: HEK 293, MTT, 24 h, result in words
Method: Human embryonic kidney (HEK 293) cells were maintained in DMEM supplemented with 10% FBS and 1% antibiotic-antimycotic solution at 37 °C, 5% CO2 in humidified atmosphere.
Cell cytotoxicity was measured by performing 3-(4,5-dimethylthiazol-2-yl)-2,5-diphenyltetrazolium bromide) (MTT) assay. Briefly, 2000 cells/100 µL were seeded in a 96-well plate and kept overnight in incubator at 37 °C, 5% CO2. […] Melittin (17 µM) was used as a positive control for cytotoxicity assay. Following incubation, 10 µL of MTT was added to each well and after 3 h the supernatant was removed and 100 µL of dimethyl sulfoxide (DMSO) was added. After 1 h incubation, the absorbance was recorded at 570 nm. One-way ANOVA was used to establish the presence of significant groups, and Tukey’s test was subsequently utilized to conduct the comparison of means.

human erythrocytes = experiment: Haemolysis assay; conditions: 30 min, 37 °C, result in words; for haemolysis: human erythrocytes 4% (v/v) in PBS, 8, 32 and 128 µM, absorbance 540 nm, duplicates; for haemolysis (positive controls): human erythrocytes 4% (v/v), melittin 17 µM (50 µg/mL), triton X-100 0.1% (v/v)
Method: The haemolysis assay is widely used to assess the therapeutic potential of a given AMP. AMPs that cause ruptured RBCs at their MICs naturally have low therapeutic potential.
Fresh human blood samples were obtained from healthy donors with the approval of the institutional medical ethics committee. Erythrocytes were isolated from heparinized human blood by centrifugation at 2000g for 5 min after washing three times with PBS at 4 °C. After removing the supernatant, the cell pellet was resuspended in 2 mL of PBS, and cells were diluted at 4% (v/v) for the haemolysis experiment. […] Samples were centrifuged at 2000g for 5 min, and the absorbance of supernatants was measured at 540 nm using a polarstar omega plate reader from BMG Labtech. Erythrocytes lysed with 0.1% triton X-100 and 50 µg/mL melittin were used as positive controls. Percentage haemolysis was calculated using the formula: Haemolysis (%) = (ASAMPLE − ANG)/(APC − ANG) × 100[ASAMPLE = Absorbance recorded for samples at 540 nm, ANG = Absorbance recorded for untreated (negative control) erythrocytes at 540 nm, APC = Absorbance recorded for Melittin treated (positive control) erythrocytes at 540 nm]. One-way ANOVA was used to establish the presence of significant groups, and Tukey’s test was subsequently utilized to conduct the comparison of means.

S. aureus = conditions: different experimental conditions and strain; ref Brouwer et al. [2006]; cited from earlier work
Method: The MICs were determined as the lowest concentration at which the conversion of the resazurin dye from blue to pink was absent. Conversely, the minimum bactericidal concentrations (MBC) were determined using the spot assay shown in Fig. 3a, where the absence of a bacterial lawn indicated the minimum required concent ...

S. aureus, ATCC 25,923 [1] = experiment: MIC by resazurin (alamar blue) reduction, broth dilution; format: cell-based; conditions: for growth inhibitory (bacteriostatic) / bactericidal effect on S. aureus: MIC and MBC assays, result in words
Method: (§1) The MICs were determined as the lowest concentration at which the conversion of the resazurin dye from blue to pink was absent. Conversely, the minimum bactericidal concentrations (MBC) were determined using the spot assay shown in Fig. 3a, where the absence of a bacterial lawn indicated the minimum required concentration for bacterial killing. […] Although UBI has been previously reported as bactericidal against S. aureus, the experimental conditions and strain utilized were different (Brouwer et al. [2006]).
A single colony of S. aureus, ATCC 25,923 (Microbiologics) was inoculated in Mueller Hinton broth (MHB) and incubated overnight at 120 rpm (revolutions per minute) and 37 °C. The experiment was carried out in a 96-microtiter plate using a broth dilution assay wherein all the peptides (ABI scientific) were diluted two-fold in each step-in media (M9 supplemented with 0.01% Tryptone). Cells were washed twice with media and diluted to a final concentration of 10^5 colony forming units (CFU) at each well. The final volume in each well was 200 µL. […] After 24 h, 30 µL of 0.75 mg/mL of resazurin dye (HiMedia Labs) was added in each of the wells and kept for incubation overnight at 37 °C with mild shaking. The next day, the 96 well plates as well as MHB-agar plates, were observed, and results were recorded. The experiment was carried out in triplicates. As mentioned earlier, S. aureus was cultured and washed with media to carry out a time-kill assay. Experiments were performed in microfuge tubes. ~10^6 cells were incubated with minimum inhibitory concentration (MIC) of UBI-APBA (2 µM) at a final volume of 500 µL adjusted with M9 media. Cells and UBI were incubated in media at 37 °C at 120 rpm. 50 µL aliquots from each reaction mixture were removed at required time intervals. These aliquots were plated on the MHB agar plates and incubated at 37 °C. The following day, colonies were counted to get CFU. Surviving fractions were plotted against time. Origin graphing and analysis 6.0 Pro software was used for plotting and analysis of data.

[2] = In vitro stability of ^68Ga complexes in PBS; format: physicochemical; conditions: 1:10 dilution, 37 °C, 3 h, radio-HPLC
in vitro = conditions: human, human serum
Method: The hydrophilicity of complexes is a predictor of fast renal clearance, which is desirable for diagnostic radiopharmaceuticals.
To assess the stability of the ^68Ga labeled peptide conjugates in PBS, 50 µL of complexes were added to 450 µL of PBS (1:10 dilution) and incubated at 37 °C for 3 h. Aliquots were taken at the end of incubation and analyzed by HPLC, as described previously. Similarly, to estimate the integrity of the ^68Ga complexes in serum, incubation was done with human serum at 1:10 dilution for 3 h at 37 °C. Samples were precipitated with 2% trichloroacetic acid (TCA), separated by centrifuging at 10,000g for 5 min, and analyzed by HPLC.

[3] = shake-flask octanol/water 1:1 (25 µL sample + 975 µL water + 1 mL octanol), vortexed, 5 min, centrifuged; NaI(Tl) counting; n = 4
Method: Partition coefficients for ^68Ga complexes were determined by mixing 25 µL of sample with 975 µL water and 1 mL octanol (octanol: water = 1:1). Thereafter, the mixture was vortexed and incubated for 5 min, followed by centrifugation for 5 min at 3000 rpm for separation of aqueous and organic phase. NaI (Tl) counter was used to measure the activity associated with both the phases and log P value [logarithm of the activity concentration in n-Octanol / activity concentration in the aqueous layer] was calculated.

S. aureus, ATCC 25,923 [4] = experiment: MBC by spot assay on MHB-agar; format: cell-based; conditions: 5 µL aliquots from MIC wells spotted on MHB-agar, overnight 37 °C, absence of bacterial lawn, triplicates
Method: as §1
A single colony of S. aureus, ATCC 25,923 (Microbiologics) was inoculated in Mueller Hinton broth (MHB) and incubated overnight at 120 rpm (revolutions per minute) and 37 °C. The experiment was carried out in a 96-microtiter plate using a broth dilution assay wherein all the peptides (ABI scientific) were diluted two-fold in each step-in media (M9 supplemented with 0.01% Tryptone). Cells were washed twice with media and diluted to a final concentration of 10^5 colony forming units (CFU) at each well. The final volume in each well was 200 µL. […] After 24 h, 30 µL of 0.75 mg/mL of resazurin dye (HiMedia Labs) was added in each of the wells and kept for incubation overnight at 37 °C with mild shaking. The next day, the 96 well plates as well as MHB-agar plates, were observed, and results were recorded. […] The following day, colonies were counted to get CFU. […]

## N#CC(C#N)=NNc1cccc(Cl)c1 [CCCP, Carbonyl cyanide m-chlorophenyl hydrazone]
S. aureus membrane
  depolarization of bacterial membrane (positive control): low red to green fluorescence intensity ratio

## CSCC[C@H](NC(=O)[C@H](CCCNC(=N)N)NC(=O)[C@H](CCCNC(=N)N)NC(=O)[C@H](CCCCN)NC(=O)[C@H](C)NC(=O)[C@H](CCCNC(=N)N)NC(=O)CNC(=O)[C@@H](N)[C@@H](C)O)C(=O)N[C@@H](CCC(N)=O)C(=O)N[C@@H](Cc1ccc(O)cc1)C(=O)N[C@@H](CC(N)=O)C(=O)N[C@@H](CCCNC(=N)N)C(=O)N[C@@H](CCCNC(=N)N)C(=O)NCC(=O)N[C@@H](CSCCCNC(=O)COc1ccc(C(C)=O)c(B(O)O)c1)C(N)=O [UBI-APBA]
HEK 293 cells; 128 µM (64 × MIC of UBI-APBA), n = 3
  cell cytotoxicity: minimal cytotoxicity; also recorded: neither hemolytic nor cytotoxic
Human erythrocytes
  haemolysis: neither hemolytic nor cytotoxic

## CSCC[C@H](NC(=O)[C@H](CCCNC(=N)N)NC(=O)[C@H](CCCNC(=N)N)NC(=O)[C@H](CCCCN)NC(=O)[C@H](C)NC(=O)[C@H](CCCNC(=N)N)NC(=O)CNC(=O)[C@@H](N)[C@@H](C)O)C(=O)N[C@@H](CCC(N)=O)C(=O)N[C@@H](Cc1ccc(O)cc1)C(=O)N[C@@H](CC(N)=O)C(=O)N[C@@H](CCCNC(=N)N)C(=O)N[C@@H](CCCNC(=N)N)C(=O)NCC(=O)N[C@@H](CS)C(N)=O [UBI]
S. aureus
  activity against S. aureus as previously reported: bactericidal
S. aureus, ATCC 25,923 [1]
  growth inhibitory (bacteriostatic) / bactericidal effect on S. aureus: no such effect
Human erythrocytes
  haemolysis: neither hemolytic nor cytotoxic

## CSCC[C@H](NC(=O)[C@H](CCCNC(=N)N)NC(=O)[C@H](CCCNC(=N)N)NC(=O)[C@H](CCCCN)NC(=O)[C@H](C)NC(=O)[C@H](CCCNC(=N)N)NC(=O)CNC(=O)[C@@H](NC(=O)CCC(C(=O)O)N1CCN(CC(=O)O)CCN(CC(=O)O)CC1)[C@@H](C)O)C(=O)N[C@@H](CCC(N)=O)C(=O)N[C@@H](Cc1ccc(O)cc1)C(=O)N[C@@H](CC(N)=O)C(=O)N[C@@H](CCCNC(=N)N)C(=O)N[C@@H](CCCNC(=N)N)C(=O)NCC(=O)N[C@@H](CS)C(N)=O (stereo partly shown) [[^68Ga]Ga-UBI, metal not drawn]
[2]
  RCP after incubation in PBS: 99%
In vitro
  remaining at 3 h: 97%
[3]
  Partition coefficient, Log P: -3.8 ± 0.15

## CSCC[C@H](NC(=O)[C@H](CCCNC(=N)N)NC(=O)[C@H](CCCNC(=N)N)NC(=O)[C@H](CCCCN)NC(=O)[C@H](C)NC(=O)[C@H](CCCNC(=N)N)NC(=O)CNC(=O)[C@@H](NC(=O)CCC(C(=O)O)N1CCN(CC(=O)O)CCN(CC(=O)O)CC1)[C@@H](C)O)C(=O)N[C@@H](CCC(N)=O)C(=O)N[C@@H](Cc1ccc(O)cc1)C(=O)N[C@@H](CC(N)=O)C(=O)N[C@@H](CCCNC(=N)N)C(=O)N[C@@H](CCCNC(=N)N)C(=O)NCC(=O)N[C@@H](CSCCCNC(=O)COc1ccc(C(C)=O)c(B(O)O)c1)C(N)=O (stereo partly shown) [[^68Ga]Ga-UBI-APBA, metal not drawn]
In vitro
  remaining at 3 h: 91%

## Acetyl-cysteine-2-acetyl boronic acid [AcCys-2-APBA]
S. aureus, ATCC 25,923 [1]
  growth inhibitory (bacteriostatic) / bactericidal effect on S. aureus: no such effect
S. aureus, ATCC 25,923 [1]; S. aureus ATCC 25,923, two-fold broth dilution in M9 + 0.01% Tryptone, 10^5 CFU per well, 200 µL, resazurin added after 24 h, overnight 37 °C, lowest concentration without blue-to-pink conversion, visual, triplicates
  MIC: > 32 µM
S. aureus, ATCC 25,923 [4]
  MBC: > 32 µM

## melittin
HEK 293 cells; melittin 17 µM
  cell cytotoxicity (positive control): cytotoxic
Human erythrocytes
  haemolysis (positive controls): induced haemolysis

## triton X-100
Human erythrocytes
  haemolysis (positive controls): induced haemolysis
